Laboratory results reported in patent publication US9695103B2 (priority 2014, dated 2017).
Where “and” joins values, the source holds several entries; their conditions need not be identical. Equal entries are not always repeated.

Columns and labels:
daphnias = experiment: Biocidal activity against crustaceans (daphnias), FR. 1.39.2007,03223 procedure; details: test time 96 h; for Number of survived daphnias (the average over parallel set of samples), Test sample: control sample 10
fungal spores = experiment: Fungicidal activity according to GOST 30028.4-2006, resistance of treated materials to fungal spores; format: cell-based; details: additive content 5 % wt.
[1] = test system: E. coli No. 906, S. aureus No. 1257, clinical strain P. aeruginosa; experiment: Bactericidal activity, summary statement over investigated strains; format: cell-based; details: concentration of 2.0%, time of exposure from 30 min
E. coli No. 906 = experiment: Bactericidal activity: exposure of bacterial culture in salt solution, neutralization, inoculation on solid nutrient medium; format: cell-based; parameters: key: NG - no growth; CG - confluent growth
S. aureus No. 1257 = experiment: as above; format: cell-based; parameters: key: NG - no growth; CG - confluent growth
[2] = test system: clinical strain P. aeruginosa; experiment: as above; format: cell-based; parameters: key: NG - no growth; CG - confluent growth
[3] = 0.00001 % wt. in aqueous medium
[4] = Paper impregnated with latex SKS 65 GP

## copper methacrylate-glycolate
daphnias; [3]
  Number of survived daphnias (the average over parallel set of samples), Test sample: 1
daphnias; 0.0001 % wt. in aqueous medium
  Number of survived daphnias (the average over parallel set of samples), Test sample: 0
daphnias; 0.001 % wt. in aqueous medium
  Number of survived daphnias (the average over parallel set of samples), Test sample: 0
daphnias; 0.01 % wt. in aqueous medium
  Number of survived daphnias (the average over parallel set of samples), Test sample: 0
daphnias; 0.1 % wt. in aqueous medium
  Number of survived daphnias (the average over parallel set of samples), Test sample: 0
daphnias; 1 % wt. in aqueous medium
  Number of survived daphnias (the average over parallel set of samples), Test sample: 0
Fungal spores; [4]
  Tolerance time: 8 days
Fungal spores; Paper impregnated with petrolatum base
  Tolerance time: 8 days
Fungal spores; Polyvinyl chloride emulsion
  Tolerance time: 10 days
[1]
  bactericidal effect against investigated strains: stable bactericidal effect
E. coli No. 906; 1.5 % wt., exposure 30 min
  Bactericidal activity, growth of E. coli 906: CG
E. coli No. 906; 1.5 % wt., exposure 60 min
  Bactericidal activity, growth of E. coli 906: >300 CFU
E. coli No. 906; 2.0 % wt., exposure 5 min
  Bactericidal activity, growth of E. coli 906: CG
E. coli No. 906; 2.0 % wt., exposure 15 min
  Bactericidal activity, growth of E. coli 906: >300 CFU
E. coli No. 906; 2.0 % wt., exposure 30 min
  Bactericidal activity, growth of E. coli 906: NG
E. coli No. 906; 2.0 % wt., exposure 60 min
  Bactericidal activity, growth of E. coli 906: NG
E. coli No. 906; 3.0 % wt., exposure 5 min
  Bactericidal activity, growth of E. coli 906: NG
E. coli No. 906; 3.0 % wt., exposure 15 min
  Bactericidal activity, growth of E. coli 906: NG
E. coli No. 906; 3.0 % wt., exposure 30 min
  Bactericidal activity, growth of E. coli 906: NG
S. aureus No. 1257; 1.5 % wt., exposure 30 min
  Bactericidal activity, growth of S. aureus 1257: CG
S. aureus No. 1257; 1.5 % wt., exposure 60 min
  Bactericidal activity, growth of S. aureus 1257: >300 CFU
S. aureus No. 1257; 2.0 % wt., exposure 5 min
  Bactericidal activity, growth of S. aureus 1257: CG
S. aureus No. 1257; 2.0 % wt., exposure 15 min
  Bactericidal activity, growth of S. aureus 1257: >300 CFU
S. aureus No. 1257; 2.0 % wt., exposure 30 min
  Bactericidal activity, growth of S. aureus 1257: NG
S. aureus No. 1257; 2.0 % wt., exposure 60 min
  Bactericidal activity, growth of S. aureus 1257: NG
S. aureus No. 1257; 3.0 % wt., exposure 5 min
  Bactericidal activity, growth of S. aureus 1257: NG
S. aureus No. 1257; 3.0 % wt., exposure 15 min
  Bactericidal activity, growth of S. aureus 1257: NG
S. aureus No. 1257; 3.0 % wt., exposure 30 min
  Bactericidal activity, growth of S. aureus 1257: NG
[2]; 1.5 % wt., exposure 30 min
  Bactericidal activity, growth of P. aeruginosa: CG
[2]; 1.5 % wt., exposure 60 min
  Bactericidal activity, growth of P. aeruginosa: CG
[2]; 2.0 % wt., exposure 5 min
  Bactericidal activity, growth of P. aeruginosa: CG
[2]; 2.0 % wt., exposure 15 min
  Bactericidal activity, growth of P. aeruginosa: >300 CFU
[2]; 2.0 % wt., exposure 60 min
  Bactericidal activity, growth of P. aeruginosa: NG
[2]; 3.0 % wt., exposure 5 min
  Bactericidal activity, growth of P. aeruginosa: NG
[2]; 3.0 % wt., exposure 15 min
  Bactericidal activity, growth of P. aeruginosa: NG
[2]; 3.0 % wt., exposure 30 min
  Bactericidal activity, growth of P. aeruginosa: NG

## C=CC(=O)[O-].CC(O)C(=O)[O-].[Zn+2] (centres unmarked) [Zinc acrylate-lactate]
daphnias; 0.0001 % wt. in aqueous medium
  Daphnia death rate in test sample, % of control sample: 90 % of control sample
  Number of survived daphnias (the average over parallel set of samples), Test sample: 1
daphnias; 0.001 % wt. in aqueous medium
  Daphnia death rate in test sample, % of control sample: 100 % of control sample and 70 % of control sample
daphnias; 0.01 % wt. in aqueous medium
  Daphnia death rate in test sample, % of control sample: 100 % of control sample
  Number of survived daphnias (the average over parallel set of samples), Test sample: 0
daphnias; 0.1 % wt. in aqueous medium
  Daphnia death rate in test sample, % of control sample: 100 % of control sample
  Number of survived daphnias (the average over parallel set of samples), Test sample: 0
daphnias; 1 % wt. in aqueous medium
  Daphnia death rate in test sample, % of control sample: 100 % of control sample
  Number of survived daphnias (the average over parallel set of samples), Test sample: 0

## C=C(C)C(=O)O.O=C([O-])CC(O)C(=O)[O-].[Zn+2] (centres unmarked) [Zinc methacrylate-malate]
Fungal spores; Polyvinyl chloride emulsion
  Tolerance time: 9 days

## C=CC(=O)[O][Zn][O]C(=O)CC(=O)O [Zinc acrylate-malonate]
Fungal spores; [4]
  Tolerance time: 20 days
Fungal spores; Polyvinyl chloride emulsion
  Tolerance time: 18 days
[1]
  bactericidal effect against investigated strains: stable bactericidal effect
E. coli No. 906; 1.5 % wt., exposure 5 min
  Bactericidal activity, growth of E. coli 906: >300 CFU
E. coli No. 906; 1.5 % wt., exposure 15 min
  Bactericidal activity, growth of E. coli 906: 78 CFU
E. coli No. 906; 1.5 % wt., exposure 30 min
  Bactericidal activity, growth of E. coli 906: 45 CFU and 53 CFU
E. coli No. 906; 1.5 % wt., exposure 60 min
  Bactericidal activity, growth of E. coli 906: 5 CFU and 4 CFU
E. coli No. 906; 2.0 % wt., exposure 5 min
  Bactericidal activity, growth of E. coli 906: 1 CFU
E. coli No. 906; 2.0 % wt., exposure 15 min
  Bactericidal activity, growth of E. coli 906: NG
E. coli No. 906; 2.0 % wt., exposure 30 min
  Bactericidal activity, growth of E. coli 906: NG
E. coli No. 906; 2.0 % wt., exposure 60 min
  Bactericidal activity, growth of E. coli 906: NG
S. aureus No. 1257; 1.5 % wt., exposure 5 min
  Bactericidal activity, growth of S. aureus 1257: >300 CFU
S. aureus No. 1257; 1.5 % wt., exposure 15 min
  Bactericidal activity, growth of S. aureus 1257: 85 CFU
S. aureus No. 1257; 1.5 % wt., exposure 30 min
  Bactericidal activity, growth of S. aureus 1257: 35 CFU and 43 CFU
S. aureus No. 1257; 2.0 % wt., exposure 5 min
  Bactericidal activity, growth of S. aureus 1257: NG
S. aureus No. 1257; 2.0 % wt., exposure 15 min
  Bactericidal activity, growth of S. aureus 1257: NG
S. aureus No. 1257; 2.0 % wt., exposure 30 min
  Bactericidal activity, growth of S. aureus 1257: NG
S. aureus No. 1257; 2.0 % wt., exposure 60 min
  Bactericidal activity, growth of S. aureus 1257: NG

## C=CC(=O)[O][Cu][O]C(=O)C(O)C(O)C(=O)O (centres unmarked) [Copper acrylate-tartrate]
Fungal spores; [4]
  Tolerance time: 16 days
Fungal spores; Polyvinyl chloride emulsion
  Tolerance time: 17 days
[1]
  bactericidal effect against investigated strains: stable bactericidal effect
E. coli No. 906; 1.5 % wt., exposure 60 min
  Bactericidal activity, growth of E. coli 906: NG
E. coli No. 906; 2.0 % wt., exposure 5 min
  Bactericidal activity, growth of E. coli 906: NG
E. coli No. 906; 2.0 % wt., exposure 15 min
  Bactericidal activity, growth of E. coli 906: NG
E. coli No. 906; 2.0 % wt., exposure 30 min
  Bactericidal activity, growth of E. coli 906: NG
E. coli No. 906; 2.0 % wt., exposure 60 min
  Bactericidal activity, growth of E. coli 906: NG
E. coli No. 906; 3.0 % wt., exposure 5 min
  Bactericidal activity, growth of E. coli 906: NG
E. coli No. 906; 3.0 % wt., exposure 15 min
  Bactericidal activity, growth of E. coli 906: NG
E. coli No. 906; 3.0 % wt., exposure 30 min
  Bactericidal activity, growth of E. coli 906: NG
S. aureus No. 1257; 1.5 % wt., exposure 60 min
  Bactericidal activity, growth of S. aureus 1257: NG
S. aureus No. 1257; 2.0 % wt., exposure 5 min
  Bactericidal activity, growth of S. aureus 1257: NG
S. aureus No. 1257; 2.0 % wt., exposure 15 min
  Bactericidal activity, growth of S. aureus 1257: NG
S. aureus No. 1257; 2.0 % wt., exposure 30 min
  Bactericidal activity, growth of S. aureus 1257: NG
S. aureus No. 1257; 2.0 % wt., exposure 60 min
  Bactericidal activity, growth of S. aureus 1257: NG
S. aureus No. 1257; 3.0 % wt., exposure 5 min
  Bactericidal activity, growth of S. aureus 1257: NG
S. aureus No. 1257; 3.0 % wt., exposure 15 min
  Bactericidal activity, growth of S. aureus 1257: NG
S. aureus No. 1257; 3.0 % wt., exposure 30 min
  Bactericidal activity, growth of S. aureus 1257: NG
[2]; 1.5 % wt., exposure 30 min
  Bactericidal activity, growth of P. aeruginosa: CG
[2]; 1.5 % wt., exposure 60 min
  Bactericidal activity, growth of P. aeruginosa: CG
[2]; 2.0 % wt., exposure 5 min
  Bactericidal activity, growth of P. aeruginosa: CG
[2]; 2.0 % wt., exposure 15 min
  Bactericidal activity, growth of P. aeruginosa: >300 CFU
[2]; 2.0 % wt., exposure 60 min
  Bactericidal activity, growth of P. aeruginosa: NG
[2]; 3.0 % wt., exposure 5 min
  Bactericidal activity, growth of P. aeruginosa: NG
[2]; 3.0 % wt., exposure 15 min
  Bactericidal activity, growth of P. aeruginosa: NG
[2]; 3.0 % wt., exposure 30 min
  Bactericidal activity, growth of P. aeruginosa: NG

## C=CC(=O)[O][Zn][O]C(=O)C(O)(CC(=O)O)CC(=O)O [Zinc acrylate-citrate]
Fungal spores; Polyvinyl chloride emulsion
  Tolerance time: 17 days

## C=CC(=O)[O-].O=C([O-])c1ccccc1.[Cu+2] [Copper acrylate-benzoate, reference compound]
daphnias; [3]
  Daphnia death rate in test sample, % of control sample: 0 % of control sample
  Number of survived daphnias (the average over parallel set of samples), Test sample: 10
daphnias; 0.0001 % wt. in aqueous medium
  Daphnia death rate in test sample, % of control sample: 0 % of control sample
  Number of survived daphnias (the average over parallel set of samples), Test sample: 10
daphnias; 0.001 % wt. in aqueous medium
  Daphnia death rate in test sample, % of control sample: 0 % of control sample
  Number of survived daphnias (the average over parallel set of samples), Test sample: 10
daphnias; 0.01 % wt. in aqueous medium
  Daphnia death rate in test sample, % of control sample: 0 % of control sample
  Number of survived daphnias (the average over parallel set of samples), Test sample: 10
daphnias; 0.1 % wt. in aqueous medium
  Daphnia death rate in test sample, % of control sample: 10 % of control sample
  Number of survived daphnias (the average over parallel set of samples), Test sample: 9
daphnias; 1 % wt. in aqueous medium
  Daphnia death rate in test sample, % of control sample: 20 % of control sample
  Number of survived daphnias (the average over parallel set of samples), Test sample: 8
